Assay results as given in patent US20180243421A1, “IMMUNOSTIMULATING AGENT” (AJINOMOTO CO., INC., priority 2015, published 2018).

System: anti-OVA-specific IgG1 subclass antibody
Experiment: Adjuvant activity: anti-OVA-specific IgG1 subclass antibody in serum after secondary immunization (Examples 1, 5, 7, 8; ELISA absorbance)
Assay type: in vivo, BALB/c mice
Method in brief: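 Serum was taken two weeks after the secondary immunization and assayed by ELISA on plates coated with 5 μg/ml OVA. Detection used biotinylated anti-mouse IgG1, then anti-biotin-HRP and TMB. The reaction was stopped with 2N H2SO4 and read as absorbance at 450 nm.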

CCCCCCCCCCCCCCCC(=O)NC(=N)NCCCCN [SZ62, N-hexadecanoylagmatine]
anti-OVA-specific IgG1 subclass antibody production as compared to the OVA single administration group (Example 1, dorsal-subcutaneous, OVA 10 μg, SZ62 0.256 μmol in 5% αCD saline, Alum 2.56 μmol, serum two weeks from secondary immunization): significantly increased
adjuvant activity (IgG1) compared with Alum (Example 1, same test as E1): equivalent to that of Alum
adjuvant activity (IgG1) compared with Alum (Example 5): equivalent to or not less than that of Alum
anti-OVA-specific IgG1 subclass antibody production as compared to the OVA single administration group (Example 5, same manner as Example 1): significantly increased
adjuvant activity (IgG1) compared with Alum (Example 8): equivalent to or not less than that of Alum
anti-OVA-specific IgG1 subclass antibody production as compared to the OVA single administration group (Example 8, same manner as Example 7): significantly increased
